The text below walks through data of a melting point compilation (Tetko et al.).

As a reminder, the melting point is the temperature, or range, at which the solid turns liquid. In turn, `C(=N\c1ccc(-c2ccc(/N=N/c3ccccc3)cc2)cc1)/c1ccccc1` registered a melting point of 226 °C.

Take `COC(=O)C(CCSC)NC(=O)c1ccc(C(F)(F)F)cc1` (stereo not given): the melting point is 94 to 96 °C.

`CCC(Cc1c(I)cc(I)c(N)c1I)C(=O)O` (stereo not given) returned a melting point of 155 °C.

Turning to `Cn1sc(Cl)cc1=O`, the melting point is 52 °C.

As to `O=C(Cl)c1sc(Br)c2c1OCCO2`, the melting point was in the range of 154 to 155 °C.

Take `CCOC(=O)c1cnn(C)c1N`: the melting point lay within 101 to 102 °C.

The molecule `CC(=O)Oc1ccc2ccccc2c1` showed a melting point of 69 °C.

`Cc1nc(-c2ccc(C(F)(F)F)cc2)sc1C(=O)CBr` showed a melting point of 82 to 84 °C.

Molecule `S=C(/N=N/c1ccccc1)NNc1ccccc1` had a melting point of 168 °C.

Molecule `CC(C)CC(C)(C)CC(C)(C)CC(C)(C)C` yielded a melting point of -98 °C.

`Cn1ccc2c1CCCC2=O` had a melting point of 85 °C.

Turning to `COc1cc2c(c(O)c1OC)C(C)N(C)CC2` (stereo not given), the melting point is 112 °C.

Consider `CNC(C)=C(C(=O)OC)C(=O)c1cc(Cl)nc(Cl)c1`, for which the melting point lay in the range of 112 to 115 °C.

With `CC1(N)CCC(C(C)(C)N)CC1` (stereo not given), the melting point is -45 °C.

The molecule `CCN(CCO)S(=O)(=O)C(F)(F)C(F)(F)C(F)(F)C(F)(F)C(F)(F)C(F)(F)C(F)(F)C(F)(F)F` came in with a melting point of 55 to 60 °C.

On to `O=C(c1ccc(F)cc1)c1cccs1`, for which the melting point was determined as 97 °C.

For the molecule `CCCCCCCCCCCCOc1ccccc1OCCCCCCCCCCCC`, the melting point was 45 to 48 °C.

Molecule `Nc1cccc(S(=O)(=O)O)c1` came in with a melting point of 300 °C.

Take `CC1CCC(=O)N1` (stereo not given): the melting point was found to be 43 °C.

`C(#Cc1ccc(C#Cc2ccccc2)cc1)c1ccccc1` returned a melting point of 177 °C.

`CC(C)Oc1ccc(C(=O)NS(=O)(=O)c2ccc(N)cc2)cc1` registered a melting point of 172 °C.

On to `CN(C)C(c1ccccc1)c1ccccc1`, for which the melting point is 69 °C.

Molecule `c1ccc2c(c1)CCCN2` had a melting point of 20 °C.

Consider `C=C1C(C(=O)O)C1C(=O)O` (stereo not given), for which the melting point lay within 197 to 201 °C.

For the molecule `Fc1nc(F)nc(F)n1`, the melting point is -38 °C.

With `CCOC(=O)c1[nH]c(C)c(S(=O)(=O)Cl)c1C`, the melting point came to 150 °C.

Molecule `CCOC(=O)C1=C(N)Oc2ccc3ccccc3c2[C@H]1c1ccc(C)cc1` registered a melting point of 201 °C.

`ICCCCCI` displayed a melting point of 9 °C.

Molecule `CCOC(=O)c1nn(-c2ccc(C)cc2)c(C)c1C(=O)c1noc(-c2ccccc2)c1S(=O)(=O)c1ccccc1` yielded a melting point of 169 °C.

The molecule `CCCCCCCCCCCCCC(C)C` returned a melting point of -7 °C.

`CC(=O)C1(O)C(O)CC2C3CCC4=CC(=O)CCC4(C)C3CCC21C` (stereo not given) came in with a melting point of 225 °C.

Regarding `C=CCC1(C(C)CCC)C(=O)NC(=S)NC1=O` (stereo not given), the melting point is 132 °C.

As to `COc1ccc(OC)c(S(N)(=O)=O)c1`, the melting point was in the range of 150 to 152 °C.

Molecule `CCCCCCCCCCCCCCCCOC(=O)C(C)O` (stereo not given) returned a melting point of 41 °C.

`CC(CCC(O)(c1ccccc1)c1ccccc1)C1CCC2C3C(O)CC4CC(O)CCC4(C)C3CC(O)C12C` (stereo not given) showed a melting point of 162 to 170 °C.

`COC(=O)[C@@H]1[C@H](c2ccccc2)C(C#N)=C(C(SC)SC)[C@@]1(O)c1ccccc1` displayed a melting point of 164 to 165 °C.

In turn, `NC(=O)C(Cc1ccccc1)NC(=O)OCc1ccccc1` (stereo not given) came in with a melting point of 162 to 164 °C.

For the molecule `COP(=S)(OC)Oc1cc(Cl)c(Cl)cc1Cl`, the melting point came to 41 °C.

As for `CC(=O)NC(Cc1c[nH]c2ccccc12)C(=O)O` (racemic), the melting point lay within 204 to 206 °C.

On to `Cc1cccc(C(C)(C)C)c1N=C=O`, for which the melting point was 37 °C.

`O=C(C=CC1=NC=NC1)NCCc1cnc[nH]1` displayed a melting point of 240 to 241 °C.

Molecule `CC(C)(C)OC(=O)NCc1ccsc1Br` yielded a melting point of 71 to 72 °C.

Consider `O=C1/C(=C/c2ccccc2O)SC(=S)N1CN1CCCCC1`, for which the melting point came to 166 °C.

`c1ccc(-n2ccnc2)cc1` came in with a melting point of 13 °C.

On to `ClCc1ccc(Cl)nc1`, for which the melting point was 40 °C.

On to `COc1ccc2c(c1C)CC2C#N` (stereo not given), for which the melting point is 80 °C.

As for `Cc1ccc(S(=O)(=O)OC2CCC3(C)C(CCC4C5CC(=O)CC5(C)CCC43)C2)cc1` (stereo not given), the melting point was 165 to 166 °C.

For the molecule `COC(=O)CCCCCC(=O)OC`, the melting point is -21 °C.

On to `BrCC12CC3CC(CC(C3)C1)C2`, for which the melting point lay within 30 to 32 °C.

As for `NC(=O)C(Cl)(Cl)Cl`, the melting point was determined as 142 °C.

`Clc1cncc(Br)c1` gave a melting point of 80 °C.

For the molecule `CN(C)C=C(C=O)c1ccccc1[N+](=O)[O-]`, the melting point was 119 to 120 °C.

Molecule `Cn1c(S)nnc1CC#N` showed a melting point of 188 to 190 °C.

In the case of `CC(C)(C)NCC(O)COc1cc(Cl)ccc1Cl` (stereo not given), the melting point came out at 82 °C.

The molecule `Cc1nc(S(=O)(=O)Cl)cn1C` came in with a melting point of 91 to 94 °C.

`CCC(N)Cc1c[nH]c2ccccc12` (stereo not given): the melting point was 97 °C.

In the case of `Nc1c(F)ccc(F)c1Cl`, the melting point was determined as 29 °C.

`O=C(O)c1ccc(O)cc1C(=O)O` returned a melting point of 191 to 194 °C.

With `CCC(C)(C)OC(N)=O`, the melting point was 86 °C.

As for `CC(C)(C)N(NC(=O)c1ccccc1)C(=O)c1c(Cl)cccc1Cl`, the melting point came to 198 °C.

`O=C(N(c1ccccc1)c1ccccc1)C(F)(F)C(F)(F)C(F)(F)C(F)(F)C(F)(F)C(F)(F)C(F)(F)C(F)(F)F` came in with a melting point of 92 °C.

`C#CC1(O)CC[C@@]2(C)C(CC[C@@H]3[C@@H]2CC[C@@]2(C)[C@H]3CC[C@]2(O)C#C)C1` (stereo not given in full) came in with a melting point of 147 °C.

The molecule `C#CC1(O)CCC2(C)C(CCC3C2CCC2(C)C(OC(C)=O)CCC32)C1` (stereo not given) displayed a melting point of 196 °C.

For the molecule `O=C=Nc1cccc2nsnc12`, the melting point lay within 81 to 82 °C.

As to `COC(=O)c1cccc(C#N)c1`, the melting point amounted to 65 °C.

In turn, `COc1ccc2cc([N+](=O)[O-])ccc2c1C=O` showed a melting point of 174 °C.

Molecule `Cn1c(=O)c2c(ncn2CN2CCOCC2)n(C)c1=O` yielded a melting point of 177 °C.

As for `CCC(C(N)=O)n1nnc2ccccc21` (stereo not given), the melting point is 143 °C.

`COc1cc2c(cc1OC)C(c1ccc(O)cc1)N(C(C)=O)CC2` (stereo not given) yielded a melting point of 145 to 147 °C.

Take `N#CC=P(c1ccccc1)(c1ccccc1)c1ccccc1`: the melting point was 189 to 198 °C.

For `CCCCN(CCCC)C(=O)COC(=O)c1ccccc1`, the melting point came out at 25 °C.

On to `COc1ccc(-c2nnc3n2NC(c2ccc([N+](=O)[O-])cc2)S3)cc1` (stereo not given), for which the melting point was in the range of 209 to 211 °C.

With `O=C(CS)Nc1ccc(F)cc1`, the melting point lay within 92 to 94 °C.

For `O=Cc1cccc(OCc2ccccc2)c1`, the melting point turned out to be 56 °C.

Take `NC(=O)c1ccc(Cl)cc1Cl`: the melting point was 192 °C.

On to `COC(=O)[C@H](Cc1ccccc1)N=C=S`, for which the melting point lay within 34 to 36 °C.

The molecule `O=Cc1ccccc1OCc1cccc(Cl)c1` had a melting point of 38 to 41 °C.

Regarding `COc1ccc2ncccc2c1`, the melting point was found to be 26.5 °C.

`C=C1C(=O)C23C(OC)CC4C5(C)CCCC4(COC5OC(C)=O)C2C(OC(C)=O)CC1C3OC(C)=O` (stereo not given): the melting point turned out to be 214 °C.

In turn, `O=S1(=O)OC(Cl)c2ccccc21` (stereo not given) displayed a melting point of 110 to 116 °C.

`NC(=O)c1cnccc1/C=C/c1ccccc1` yielded a melting point of 200 °C.

On to `CCC(=O)OC(C)c1ccccc1` (stereo not given), for which the melting point is -60 °C.

For the molecule `ClC1(Cl)CCCCC1`, the melting point was -47 °C.

Consider `O=S(=O)(Cl)c1c(F)c(Br)cc(F)c1Br`, for which the melting point was 69 °C.

As for `Ic1cc(I)c(I)c(I)c1I`, the melting point came to 172 °C.

`Nc1ncc(Cl)cn1` returned a melting point of 235 °C.

In turn, `Nc1nn2c(C(F)(F)F)cc(-c3cccs3)nc2c1/N=N/c1cccc([N+](=O)[O-])c1` came in with a melting point of 245 °C.

`CCOc1cc2c(cc1OCC)C(CC#N)NCC2` (stereo not given) displayed a melting point of 99 to 102 °C.

For `Cc1c(C)c(C)c2c(c1C)CC2=O`, the melting point fell in the range of 160 to 161 °C.

Molecule `COc1ccc(O)c([N+](=O)[O-])c1` returned a melting point of 79 °C.

Molecule `Cc1occc1C(=O)CC#N` displayed a melting point of 95 to 97 °C.

Take `CCCCCCC(C)(C)S`: the melting point is -43.1 °C.

Molecule `CCCc1ccccc1/C=N/Nc1ccc([N+](=O)[O-])cc1[N+](=O)[O-]` came in with a melting point of 228 °C.

In turn, `CC(CCC(=O)O)C1CCC2C3C(=O)CC4CC5(CCC4(C)C3CC(=O)C12C)OCCO5` (stereo not given) showed a melting point of 222 °C.

`FC(F)(F)c1cc(Br)ccc1Br` displayed a melting point of 49 °C.

Regarding `Cc1ccc(CCCC(=O)O)cc1`, the melting point came out at 57 °C.

As for `c1ccc(P(c2ccccc2)P(c2ccccc2)c2ccccc2)cc1`, the melting point is 120 to 122 °C.

In turn, `NC(=O)n1c(C2CCCCC2)nn(-c2ccccc2)c1=O` had a melting point of 198 °C.

`CCOC(=O)C(C/C=C1\OC(=O)C(OC)=C1OC)S(=O)(=O)c1ccccc1` (stereo not given) registered a melting point of 99 to 101 °C.

`CCOC(=O)c1nc2ccccc2s1` had a melting point of 70 °C.

Consider `COC(=O)C(C)Oc1ccc(Oc2ccc(Cl)cc2Cl)cc1` (stereo not given), for which the melting point is 44 °C.

`FC(F)(F)c1cc(Cl)c2cc(Br)ccc2n1` gave a melting point of 98 to 100 °C.

`CC(C)c1cc(Oc2ccccc2)cc(C(C)C)c1NC(=S)NC(C)(C)C` displayed a melting point of 146 °C.

Regarding `CCCCCCCCCCCCCOCC1CO1` (stereo not given), the melting point turned out to be 1.6 °C.

Regarding `COC(=O)c1c(OC)ccc(OC)c1C(=O)OC`, the melting point is 101 °C.

`Cc1cc(-c2ccccc2)nc2cc3nc(-c4ccccc4)cc(C)c3cc12` returned a melting point of 284 to 285 °C.

As for `Clc1cc(Cl)c2oc3c(Cl)c(Cl)c(Cl)cc3c2c1`, the melting point was found to be 219 °C.

Regarding `C[Si](C)(Oc1ccccc1)Oc1ccccc1`, the melting point was -23 °C.

Consider `CC1(C)OC(C(O)CO)C(C(O)CO)O1` (stereo not given), for which the melting point turned out to be 87 °C.

As for `Cc1nc(C#N)cs1`, the melting point is 58 °C.
